Among the data in US8975417B2, “Pyrazolopyrrolidine derivatives and their use in the treatment of disease” (Novartis AG, priority 2013, dated 2015) are IC (total growth inhibition) values, retold here.

Each structure is given as a SMILES string.

The subject of this experiment is MV-4-11 cells. The experiment in a line: Cell growth inhibition assay (CellTiter-Glo), MV-4-11. Conditions: Homo sapiens, MV4-11, read-out: MV-4-11 TGI. It is filed as cell-based. In short, it runs like this: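 CellTiter-Glo ATP luminescence after compound exposure at 37° C., 5% CO2; 3-fold serial dilutions from 10 μM, 0.1% DMSO vehicle. Readings background- and day 0-corrected, vehicle = 100%, medium = −100%. IC50 and total growth inhibition (TGI) from four-parameter fits.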
For orientation: ATP-based viability assays read luminescence as a measure of living cells.
With `COc1ncccc1-n1nc(C)c2c1C(=O)N(c1cc(C)c3nnc(C)n3n1)C2c1ccc(Cl)cc1` (centres unmarked) [Example 111, 4-(4-chlorophenyl)-5-(3,8-dimethyl-[1,2,4]triazolo[4,3-b]pyridazin-6-yl)-1-(2-methoxypyridin-3-yl)-3-methyl-4,5-dihydropyrrolo[3,4-c]pyrazol-6(1H)-one], the IC (total growth inhibition) stood at 0.0306 µM. To `Cc1nn(C2CC2)c2c1C(c1ccc(Cl)cc1)N(c1cc(N(C)C(=O)OC(C)(C)C)c3nnc(C)n3n1)C2=O` (centres unmarked) [Example 112, tert-butyl (6-(4-(4-chlorophenyl)-1-cyclopropyl-3-methyl-6-oxopyrrolo[3,4-c]pyrazol-5(1H,4H,6H)-yl)-3-methyl-[1,2,4]triazolo[4,3-b]pyridazin-8-yl)(methyl)carbamate] belongs 1.21 µM; to `Cc1nn(-c2ccnn2C)c2c1C(c1ccc(Cl)cc1)N(c1cc(C)c3nnc(C)n3n1)C2=O` (centres unmarked) [Example 114, 4-(4-chlorophenyl)-5-(3,8-dimethyl-[1,2,4]triazolo[4,3-b]pyridazin-6-yl)-3-methyl-1-(1-methyl-1H-pyrazol-5-yl)-4,5-dihydropyrrolo[3,4-c]pyrazol-6(1H)-one], 0.0443 µM; to `CCn1nc2c(c1C)C(c1ccc(Cl)cc1)N(c1cc(C)c3nnc(C)n3c1)C2=O` (centres unmarked) [Example 115, 4-(4-chlorophenyl)-5-(3,8-dimethyl-[1,2,4]triazolo[4,3-a]pyridin-6-yl)-2-ethyl-3-methyl-4,5-dihydropyrrolo[3,4-c]pyrazol-6(2H)-one], 0.0482 µM. Consider `CCn1nc(C)c2c1C(=O)N(c1cc(C)c3nnc(C)n3c1)C2c1ccc(Cl)cc1` (centres unmarked) [Example 116, 4-(4-chlorophenyl)-5-(3,8-dimethyl-[1,2,4]triazolo[4,3-a]pyridin-6-yl)-1-ethyl-3-methyl-4,5-dihydropyrrolo[3,4-c]pyrazol-6(1H)-one], for which the IC (total growth inhibition) stood at 0.0301 µM. To `Cc1cc(N2C(=O)c3c(c(C4CC4)nn3-c3ccnn3C)C2c2ccc(Cl)cc2)cn2c(C)nnc12` (centres unmarked) [Example 117, 4-(4-chlorophenyl)-3-cyclopropyl-5-(3,8-dimethyl-[1,2,4]triazolo[4,3-a]pyridin-6-yl)-1-(1-methyl-1H-pyrazol-5-yl)-4,5-dihydropyrrolo[3,4-c]pyrazol-6(1H)-one] belongs 0.0391 µM; to `Cc1nn(-c2ccnn2C)c2c1[C@@H](c1ccc(Cl)cc1)N(c1cc(C)c(=O)n(C)c1)C2=O` [Example 120, (R)-4-(4-chlorophenyl)-5-(1,5-dimethyl-6-oxo-1,6-dihydropyridin-3-yl)-3-methyl-1-(1-methyl-1H-pyrazol-5-yl)-4,5-dihydropyrrolo[3,4-c]pyrazol-6(1H)-one], 0.106 µM.

Consider `Cc1nn(-c2ccnn2C)c2c1[C@H](c1ccc(Cl)cc1)N(c1cc(C)c(=O)n(C)c1)C2=O` [Example 121, (S)-4-(4-chlorophenyl)-5-(1,5-dimethyl-6-oxo-1,6-dihydropyridin-3-yl)-3-methyl-1-(1-methyl-1H-pyrazol-5-yl)-4,5-dihydropyrrolo[3,4-c]pyrazol-6(1H)-one], for which the IC (total growth inhibition) was found to be 1.23 µM. Take `Cc1nn(C2CC2)c2c1[C@@H](c1ccc(Cl)cc1)N(c1cc(C)c3nnc(C)n3n1)C2=O` [Example 122, (R)-4-(4-chlorophenyl)-1-cyclopropyl-5-(3,8-dimethyl-[1,2,4]triazolo[4,3-b]-pyridazin-6-yl)-3-methyl-4,5-dihydropyrrolo[3,4-c]pyrazol-6(1H)-one]: the IC (total growth inhibition) was 0.00842 µM.

On to `Cc1nn(-c2ccnn2C)c2c1[C@H](c1ccc(Cl)cc1)N(c1cc(C)c3nnc(C)n3c1)C2=O` [Example 124, (S)-4-(4-chlorophenyl)-5-(3,8-dimethyl-[1,2,4]triazolo[4,3-a]pyridin-6-yl)-3-methyl-1-(1-methyl-1H-pyrazol-5-yl)-4,5-dihydropyrrolo[3,4-c]pyrazol-6(1H)-one], for which the IC (total growth inhibition) was determined as 0.73 µM.

Take `Cc1nn(-c2ccnn2C)c2c1[C@@H](c1ccc(Cl)cc1)N(c1cc(C)c3nnc(C)n3c1)C2=O` [Example 125, (R)-4-(4-chlorophenyl)-5-(3,8-dimethyl-[1,2,4]triazolo[4,3-a]pyridin-6-yl)-3-methyl-1-(1-methyl-1H-pyrazol-5-yl)-4,5-dihydropyrrolo[3,4-c]pyrazol-6(1H)-one]: the IC (total growth inhibition) was determined as 0.0399 µM. To `CC(=O)Nc1cc(N2C(=O)c3c(c(C)nn3C3CC3)C2c2ccc(Cl)cc2)nn2c(C)nnc12` (centres unmarked) [Example 126, N-(6-(4-(4-chlorophenyl)-1-cyclopropyl-3-methyl-6-oxopyrrolo[3,4-c]pyrazol-5-(1H,4H,6H)-yl)-3-methyl-[1,2,4]triazolo[4,3-b]pyridazin-8-yl)acetamide] belongs 0.682 µM.

As to `COc1ncccc1-n1nc(C)c2c1C(=O)N(c1cc(C)c(=O)n(C)c1)[C@H]2c1ccc(Cl)cc1` [Example 127, (S)-4-(4-chlorophenyl)-5-(1,5-dimethyl-6-oxo-1,6-dihydropyridin-3-yl)-1-(2-methoxypyridin-3-yl)-3-methyl-4,5-dihydropyrrolo[3,4-c]pyrazol-6(1H)-one], the IC (total growth inhibition) is 4.49 µM. Consider `COc1ncccc1-n1nc(C)c2c1C(=O)N(c1cc(C)c(=O)n(C)c1)[C@@H]2c1ccc(Cl)cc1` [Example 128, (R)-4-(4-chlorophenyl)-5-(1,5-dimethyl-6-oxo-1,6-dihydropyridin-3-yl)-1-(2-methoxypyridin-3-yl)-3-methyl-4,5-dihydropyrrolo[3,4-c]pyrazol-6(1H)-one], for which the IC (total growth inhibition) turned out to be 0.0734 µM.

For `COCc1nn(C2CC2)c2c1C(c1ccc(Cl)cc1)N(c1cc(C)c3nnc(C)n3c1)C2=O` (centres unmarked) [Example 130, 4-(4-chlorophenyl)-1-cyclopropyl-5-(3,8-dimethyl-[1,2,4]triazolo[4,3-a]pyridin-6-yl)-3-(methoxymethyl)-4,5-dihydropyrrolo[3,4-c]pyrazol-6(1H)-one], the IC (total growth inhibition) was 0.0267 µM.

For `Cc1cc(N2C(=O)c3c(c(CO)nn3C3CC3)C2c2ccc(Cl)cc2)cn2c(C)nnc12` (centres unmarked) [Example 131, 4-(4-chlorophenyl)-1-cyclopropyl-5-(3,8-dimethyl-[1,2,4]triazolo[4,3-a]pyridin-6-yl)-3-(hydroxymethyl)-4,5-dihydropyrrolo[3,4-c]pyrazol-6(1H)-one], the IC (total growth inhibition) stood at 0.0405 µM.

For the molecule `Cc1nn(C2COC2)c2c1C(c1ccc(Cl)cc1)N(c1cc(C)c(=O)n(C)c1)C2=O` (centres unmarked) [Example 135, 4-(4-chlorophenyl)-5-(1,5-dimethyl-6-oxo-1,6-dihydropyridin-3-yl)-3-methyl-1-(oxetan-3-yl)-4,5-dihydropyrrolo[3,4-c]pyrazol-6(1H)-one], the IC (total growth inhibition) is 0.126 µM. `Cc1cc(N2C(=O)c3nn(C4COC4)c(C)c3C2c2ccc(Cl)cc2)cn2c(C)nnc12` (centres unmarked) [Example 136, 4-(4-chlorophenyl)-5-(3,8-dimethyl-[1,2,4]triazolo[4,3-a]pyridin-6-yl)-3-methyl-2-(oxetan-3-yl)-4,5-dihydropyrrolo[3,4-c]pyrazol-6(2H)-one]: the IC (total growth inhibition) is 0.041 µM.

Turning to `Cc1nn(C2COC2)c2c1C(c1ccc(Cl)cc1)N(c1cc(C)c3nnc(C)n3c1)C2=O` (centres unmarked) [Example 137, 4-(4-chlorophenyl)-5-(3,8-dimethyl-[1,2,4]triazolo[4,3-a]pyridin-6-yl)-3-methyl-1-(oxetan-3-yl)-4,5-dihydropyrrolo[3,4-c]pyrazol-6(1H)-one], the IC (total growth inhibition) was 0.0421 µM. Consider `Cc1nn(C2CN(C)C2)c2c1C(c1ccc(Cl)cc1)N(c1cc(C)c(=O)n(C)c1)C2=O` (centres unmarked) [Example 140, 4-(4-chlorophenyl)-5-(1,5-dimethyl-6-oxo-1,6-dihydropyridin-3-yl)-3-methyl-1-(1-methylazetidin-3-yl)-4,5-dihydropyrrolo[3,4-c]pyrazol-6(1H)-one], for which the IC (total growth inhibition) was found to be 0.154 µM. Take `Cc1cc(N2C(=O)c3nn(C(=O)N(C)C)c(C)c3C2c2ccc(Cl)cc2)cn(C)c1=O` (centres unmarked) [Example 141, 4-(4-chlorophenyl)-5-(1,5-dimethyl-6-oxo-1,6-dihydropyridin-3-yl)-N,N,3-trimethyl-6-oxo-5,6-dihydropyrrolo[3,4-c]pyrazole-2(4H)-carboxamide]: the IC (total growth inhibition) was 0.222 µM. Consider `Cc1nn(C(=O)N(C)C)c2c1C(c1ccc(Cl)cc1)N(c1cc(C)c(=O)n(C)c1)C2=O` (centres unmarked) [Example 142, 4-(4-chlorophenyl)-5-(1,5-dimethyl-6-oxo-1,6-dihydropyridin-3-yl)-N,N,3-trimethyl-6-oxo-5,6-dihydropyrrolo[3,4-c]pyrazole-1(4H)-carboxamide], for which the IC (total growth inhibition) was 0.121 µM.

Consider `CNC(=O)n1nc(C)c2c1C(=O)N(c1cc(C)c(=O)n(C)c1)C2c1ccc(Cl)cc1` (centres unmarked) [Example 143, 4-(4-chlorophenyl)-5-(1,5-dimethyl-6-oxo-1,6-dihydropyridin-3-yl)-N,3-dimethyl-6-oxo-5,6-dihydropyrrolo[3,4-c]pyrazole-1(4H)-carboxamide], for which the IC (total growth inhibition) was determined as 0.116 µM.

Consider `CNC(=O)n1nc(C)c2c1C(=O)N(c1cc(C)c3nnc(C)n3c1)C2c1ccc(Cl)cc1` (centres unmarked) [Example 145, 4-(4-chlorophenyl)-5-(3,8-dimethyl-[1,2,4]triazolo[4,3-a]pyridin-6-yl)-N,3-dimethyl-6-oxo-5,6-dihydropyrrolo[3,4-c]pyrazole-1(4H)-carboxamide], for which the IC (total growth inhibition) came out at 0.093 µM. To `CCc1c2c(nn1C(=O)N(C)C)C(=O)N(c1cc(C)c(=O)n(C)c1)C2c1ccc(Cl)cc1` (centres unmarked) [Example 148, 4-(4-chlorophenyl)-5-(1,5-dimethyl-6-oxo-1,6-dihydropyridin-3-yl)-3-ethyl-N,N-dimethyl-6-oxo-5,6-dihydropyrrolo[3,4-c]pyrazole-2(4H)-carboxamide] belongs 0.114 µM; to `Cc1nn(C(=O)N(C)C)c2c1[C@@H](c1ccc(Cl)cc1)N(c1cc(C)c3nnc(C)n3c1)C2=O` [Example 149, (R)-4-(4-chlorophenyl)-5-(3,8-dimethyl-[1,2,4]triazolo[4,3-a]pyridin-6-yl)-N,N,3-trimethyl-6-oxo-5,6-dihydropyrrolo[3,4-c]pyrazole-1(4H)-carboxamide], 0.0505 µM.
